Tests used:
Details in all cases: 40% blood, 90 min
AB 5075 COL^S = test: MBC in human blood, AB 5075; assay type: cell-based, Acinetobacter baumannii
Description: (§1) Overnight stationary-phase cultures were centrifuged at 3,500×g for 10 min at room temperature and resuspended in 1×PBS to an optical density at 600 nm (OD600) of 0.4 (1×10^8 colony forming units [CFU]/mL) in RPMI with L-glutamine and phenol red (Life Technologies). […] MBC was defined as the minimum conjugate concentration required for complete bacterial clearance. An untreated growth control (40% blood, 0 μg/mL conjugate) was included in all assays.
(§2) Overnight stationary-phase cultures were centrifuged at 3,500×g for 10 min at room temperature and resuspended in 1×PBS to an optical density at 600 nm (OD600) of 0.4 (1×10^8 colony forming units [CFU]/ml) in RPMI with L-glutamine and phenol red (Life Technologies). Bacteria were diluted 1:25 in RPMI (4×10^6 CFU/ml) and 10 ul added to wells of a non-binding 96-well plate (Corning 3641) containing 80 ul of 50% hirudin anti-coagulated blood (complement active) in RPMI. […] MBC was defined as the minimum conjugate concentration required for bacterial clearance (Table 8A and Table 8B). An untreated growth control (40% blood, 0 ug/ml conjugate) was included in all assays as a growth comparator.

PA 01 COL^S = test: MBC in human blood, PA 01; assay type: cell-based, Pseudomonas aeruginosa
Description: as §1, §2

PA 7874 COL^R = test: MBC in human blood, PA 7874; assay type: cell-based, Pseudomonas aeruginosa
Description: as §1, §2

EC 25922 COL^S = test: MBC in human blood, EC 25922; assay type: cell-based, Escherichia coli
Description: as §1, §2

hIgG1 Fc: "h-IgG1 Fc (SEQ ID NO: 4)", "MW=54,731 Da"; the unconjugated Fc used as starting protein
>128 µg/mL: MBC in human hirudin-anticoagulated blood, A. baumannii AB5075 (AB 5075 COL^S) | MBC in human hirudin-anticoagulated blood, P. aeruginosa PAO1 (PA 01 COL^S) | MBC in human hirudin-anticoagulated blood, P. aeruginosa PA7874 (PA 7874 COL^R) | MBC in human hirudin-anticoagulated blood, E. coli ATCC 25922 (EC 25922 COL^S)

— patent publication US20230190950A1, “COMPOSITIONS AND METHODS FOR THE TREATMENT OF BACTERIAL INFECTIONS” (Cidara Therapeutics, Inc., priority 2017, published 2023)
